Experimental data: patent publication EP4670717A1, “PYRROLIDINE-FUSED MYRTANOL DERIVATIVES AS INHIBITORS AND/OR DEGRADERS OF IDO1 UND USE THEREOF” (Max-Planck-Gesellschaft zur Förderung der Wissenschaften …, priority 2024, dated 2025)

Molecular target: T1, IDO1 (Homo sapiens, UniProt P14902)
T1 construct: BxPC3 cells were seeded in phenol red-free RPMI 1640 medium; endogenous in cells; host or cells: BxPC3 cells stimulated with IFN-γ (50 ng/mL)
Assay: Kyn assay in BxPC-3 cells (Kyn levels after IFN-γ and Trp);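 also: kyn levels expressed relative to DMSO-treated control cells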
Type: cell-based
Details: BxPC-3 cells incubated with IFN-γ, Trp and the compounds for 48 h; read-out: Kyn assay IC50 ± SD
Experimental: BxPC3 cells were seeded in phenol red-free RPMI 1640 medium in 1536-well or 384-well plates (Greiner #782086, Corning #3770) 24 h prior to the addition of compounds, IFN-γ (50 ng/mL, PeproTech) and L-Trp (380 µM, Sigmal-Aldrich). After 48 h of incubation, first cell viability was accessed by the addition of Hoechst-33342. Afterwards, trichloroacetic acid (TCA, Sigma-Aldrich) was added to a final concentration of 7 % and incubated for 10 min prior to a centrifugation step of 10 min at 1620 × g. Kyn levels were determined by means of the Kyn sensor^7 at a final concentration of 17.5 µM in sensor buffer (50 mM H3PO4 and 120 mM NaCl (pH=1)). Fluorescence intensity (excitation: 535 nm, emission: 595 nm) was measured using a Spectramax Paradigm reader (Molecular Devices). Data were normalized to the values for cells that were treated with DMSO.
For the manual assay, BxPC3 or SKOV3 cells were seeded in clear 96-well or 384-well plates, respectively, 24 h prior to compound treatment and IFN-γ (50 or 5 ng/mL, respectively) and L-Trp (380 µM) addition as described before.^7 48 h after treatment, TCA was added and Kyn levels were detected by means of 2 % w/v of p-DMAB (Ehrlich reagent) in acetic acid as described by Braun et al^29. The absorbance of the Ehrlich reagent was detected at 492 nm and at 650 nm as background control was measured on Spark® multimode microplate plate reader (Tecan, Austria). Kyn levels were determined by subtracting the absorbance value at 650 nm and presented relative to the DMSO control. Dose-response curves and IC50 values were generated and fitted with GraphPad Prism 6.0 (GraphPad software, USA) using four-parameter variable slope non-linear regression curve fit.
Cells were incubated with IFN-γ, Trp and the compounds for 48 h prior to detection of Kyn levels.

T1 sequence (P14902 whole entry): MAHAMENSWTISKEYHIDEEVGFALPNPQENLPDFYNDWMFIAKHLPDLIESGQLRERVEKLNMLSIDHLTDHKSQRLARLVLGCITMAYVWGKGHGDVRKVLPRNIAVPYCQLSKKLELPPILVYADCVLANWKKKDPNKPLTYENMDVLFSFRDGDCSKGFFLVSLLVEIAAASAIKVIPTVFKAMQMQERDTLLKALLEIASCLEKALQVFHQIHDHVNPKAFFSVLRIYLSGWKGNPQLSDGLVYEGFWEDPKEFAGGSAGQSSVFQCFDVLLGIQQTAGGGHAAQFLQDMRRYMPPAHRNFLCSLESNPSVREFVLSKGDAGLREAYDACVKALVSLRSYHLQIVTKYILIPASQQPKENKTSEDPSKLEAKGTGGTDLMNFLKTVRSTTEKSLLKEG

SMILES	IC50
CC(C)(C)c1ccc(S(=O)(=O)N2C[C@H]3C[C@H]4C[C@H](C4(C)C)[C@@]3(COC(=O)Nc3cccc(Br)c3)C2)cc1 [compound 14, ((3aS,4R,6R,7aS)-2-((4-(tert-butyl)phenyl)sulfonyl)-5,5-dimethyloctahydro-3aH-4,6-methanoisoindol-3a-yl)methyl (3-bromophenyl)carbamate]	5000 to 10000 nM
CC1(C)[C@H]2C[C@@H]3CN(S(=O)(=O)c4ccc(-c5ccccc5)cc4)C[C@]3(COC(=O)Nc3ccc(I)cc3)[C@@H]1C2 [compound 44, ((3aS,4R,6R,7aS)-2-([1,1'-biphenyl]-4-ylsulfonyl)-5,5-dimethyloctahydro-3aH-4,6-methanoisoindol-3a-yl)methyl (4-iodophenyl)carbamate]	200 to 1000 nM
CC(C)(C)c1ccc(S(=O)(=O)N2C[C@H]3C[C@H]4C[C@H](C4(C)C)[C@@]3(COC(=O)Nc3ccccc3)C2)cc1 [compound 6, ((3aS,4R,6R,7aS)-2-((4-(tert-butyl)phenyl)sulfonyl)-5,5-dimethyloctahydro-3aH-4,6-methanoisoindol-3a-yl)methyl phenylcarbamate]	5000 to 10000 nM
C#Cc1ccc(NC(=O)OC[C@]23CN(S(=O)(=O)c4ccc(C5(C(F)(F)F)N=N5)cc4)C[C@H]2C[C@H]2C[C@@H]3C2(C)C)cc1 [compound 76, ((3aS,4R,6R,7aS)-5,5-dimethyl-2-((4-(3-(trifluoromethyl)-3H-diazirin-3-yl)phenyl)sulfonyl)octahydro-3aH-4,6-methanoisoindol-3a-yl)methyl (4-ethynylphenyl) carbamate]	< 200 nM
CC1(C)[C@H]2C[C@@H]3CN(S(=O)(=O)c4ccc5ccccc5c4)C[C@]3(COC(=O)Nc3ccc(I)cc3)[C@@H]1C2 [compound 38, ((3aS,4R,6R,7aS)-5,5-dimethyl-2-(naphthalen-2-ylsulfonyl)octahydro-3aH-4,6-methanoisoindol-3a-yl)methyl (4-iodophenyl)carbamate]	200 to 1000 nM
Cc1ccc(NC(=O)OC[C@]23CN(S(=O)(=O)c4ccc(C5(C(F)(F)F)N=N5)cc4)C[C@H]2C[C@H]2C[C@@H]3C2(C)C)cc1 [compound 35, ((3aS,4R,6R,7aS)-5,5-dimethyl-2-((4-(3-(trifluoromethyl)-3H-diazirin-3-yl)phenyl)sulfonyl)octahydro-3aH-4,6-methanoisoindol-3a-yl)methyl p-tolylcarbamate]	1000 to 5000 nM
CC(C)(C)c1ccc(S(=O)(=O)N2C[C@H]3C[C@H]4C[C@H](C4(C)C)[C@@]3(COC(=O)Nc3ccccc3I)C2)cc1 [compound 12, ((3aS,4R,6R,7aS)-2-((4-(tert-butyl)phenyl)sulfonyl)-5,5-dimethyloctahydro-3aH-4,6-methanoisoindol-3a-yl)methyl (2-iodophenyl)carbamate]	200 to 1000 nM
Cc1ccc(NC(=O)OC[C@]23CN(S(=O)(=O)c4ccc(OC(F)(F)F)cc4)C[C@H]2C[C@H]2C[C@@H]3C2(C)C)cc1 [compound 34, ((3aS,4R,6R,7aS)-5,5-dimethyl-2-((4-(trifluoromethoxy)phenyl)sulfonyl)octahydro-3aH-4,6-methanoisoindol-3a-yl)methyl p-tolylcarbamate]	1000 to 5000 nM
Cc1ccc(NC(=O)OC[C@]23CN(S(=O)(=O)c4ccc(C(C)(C)C)cc4)C[C@H]2C[C@H]2C[C@@H]3C2(C)C)c(C)c1 [compound 7, ((3aS,4R,6R,7aS)-2-((4-(tert-butyl)phenyl)sulfonyl)-5,5-dimethyloctahydro-3aH-4,6-methanoisoindol-3a-yl)methyl (2,4-dimethylphenyl)carbamate]	1000 to 5000 nM
CC(C)(C)c1ccc(S(=O)(=O)N2C[C@H]3C[C@H]4C[C@H](C4(C)C)[C@@]3(COC(=O)Nc3ccccc3Br)C2)cc1 [compound 13, ((3aS,4R,6R,7aS)-2-((4-(tert-butyl)phenyl)sulfonyl)-5,5-dimethyloctahydro-3aH-4,6-methanoisoindol-3a-yl)methyl (2-bromophenyl)carbamate]	200 to 1000 nM
CC1(C)CCC(C)(C)c2cc(S(=O)(=O)N3C[C@H]4C[C@H]5C[C@H](C5(C)C)[C@@]4(COC(=O)Nc4ccc(I)cc4)C3)ccc21 [compound 46]	200 to 1000 nM
Cc1ccc(NC(=O)OC[C@]23CN(S(=O)(=O)c4ccccc4Br)C[C@H]2C[C@H]2C[C@@H]3C2(C)C)cc1 [compound 36, ((3aS,4R,6R,7aS)-2-((2-bromophenyl)sulfonyl)-5,5-dimethyloctahydro-3aH-4,6-methanoisoindol-3a-yl)methyl p-tolylcarbamate]	5000 to 10000 nM
Cc1ccc(NC(=O)OC[C@]23CN(S(=O)(=O)C(C)C)C[C@H]2C[C@H]2C[C@@H]3C2(C)C)cc1 [compound 30, ((3aS,4R,6R,7aS)-2-(isopropylsulfonyl)-5,5-dimethyloctahydro-3aH-4,6-methanoisoindol-3a-yl) methyl p-tolylcarbamate]	1000 to 5000 nM
Cc1ccc(NC(=O)OC[C@]23CN(S(=O)(=O)C4CCCCC4)C[C@H]2C[C@H]2C[C@@H]3C2(C)C)cc1 [compound 31, ((3aS,4R,6R,7aS)-2-(cyclohexylsulfonyl)-5,5-dimethyloctahydro-3aH-4,6-methanoisoindol-3a-yl)methyl p-tolylcarbamate]	5000 to 10000 nM

The next lines start with the values.

IC50	SMILES
< 200 nM	CCC(C)(C)c1ccc(S(=O)(=O)N2C[C@H]3C[C@H]4C[C@H](C4(C)C)[C@@]3(COC(=O)Nc3ccc(I)cc3)C2)cc1 [compound 48, ((3aS,4R,6R,7aS)-5,5-dimethyl-2-((4-(tert-pentyl)phenyl)sulfonyl)octahydro-3aH-4,6-methanoisoindol-3a-yl)methyl (4-iodophenyl)carbamate]
1000 to 5000 nM	CCc1ccc(NC(=O)OC[C@]23CN(S(=O)(=O)c4ccc(C(C)(C)C)cc4)C[C@H]2C[C@H]2C[C@@H]3C2(C)C)cc1 [compound 2, ((3aS,4R,6R,7aS)-2-((4-(tert-butyl)phenyl)sulfonyl)-5,5-dimethyloctahydro-3aH-4,6-methanoisoindol-3a-yl)methyl (4-ethylphenyl)carbamate]
5000 to 10000 nM	CC(C)(C(=O)N1CCOCC1)c1ccc(S(=O)(=O)N2C[C@H]3C[C@H]4C[C@H](C4(C)C)[C@@]3(COC(=O)Nc3ccc(I)cc3)C2)cc1 [compound 59, ((3aS,4R,6R,7aS)-5,5-dimethyl-2-((4-(2-methyl-1-morpholino-1-oxopropan-2-yl)phenyl)sulfonyl)octahydro-3aH-4,6-methanoisoindol-3a-yl)methyl (4-iodophenyl)carbamate]
200 to 1000 nM	Cc1ccc(S(=O)(=O)N2C[C@H]3C[C@H]4C[C@H](C4(C)C)[C@@]3(COC(=O)Nc3ccc(I)cc3)C2)cc1 [compound 41, ((3aS,4R,6R,7aS)-5,5-dimethyl-2-tosyloctahydro-3aH-4,6-methanoisoindol-3a-yl)methyl (4-iodophenyl)carbamate]
1000 to 5000 nM	COc1ccc(NC(=O)OC[C@]23CN(S(=O)(=O)c4ccc(C(C)(C)C)cc4)C[C@H]2C[C@H]2C[C@@H]3C2(C)C)cc1 [compound 20, ((3aS,4R,6R,7aS)-2-((4-(tert-butyl)phenyl)sulfonyl)-5,5-dimethyloctahydro-3aH-4,6-methanoisoindol-3a-yl)methyl (4-methoxyphenyl)carbamate]
200 to 1000 nM	CN(C)C(=O)C(C)(C)c1ccc(S(=O)(=O)N2C[C@H]3C[C@H]4C[C@H](C4(C)C)[C@@]3(COC(=O)Nc3ccc(I)cc3)C2)cc1 [compound 60, ((3aS,4R,6R,7aS)-2-((4-(1-(dimethylamino)-2-methyl-1-oxopropan-2-yl)phenyl)sulfonyl)-5,5-dimethyloctahydro-3aH-4,6-methanoisoindol-3a-yl)methyl (4-iodophenyl)carbamate]
< 200 nM	COC(=O)C(C)(C)c1ccc(S(=O)(=O)N2C[C@H]3C[C@H]4C[C@H](C4(C)C)[C@@]3(COC(=O)Nc3ccc(I)cc3)C2)c(OC)c1 [compound 66, Methyl 2-(4-(((3aS,4R,6R,7aS)-3a-((((4-iodophenyl)carbamoyl)oxy)methyl)-5,5-dimethyloctahydro-2H-4,6-methanoisoindol-2-yl)sulfonyl)-3-methoxyphenyl)-2-methylpropanoate]
< 200 nM	COC(=O)CC(C)(C)c1ccc(S(=O)(=O)N2C[C@H]3C[C@H]4C[C@H](C4(C)C)[C@@]3(COC(=O)Nc3ccc(I)cc3)C2)cc1 [compound 62, Methyl 3-(4-(((3aS,4R,6R,7aS)-3a-((((4-iodophenyl)carbamoyl)oxy)methyl)-5,5-dimethyloctahydro-2H-4,6-methanoisoindol-2-yl)sulfonyl)phenyl)-3-methylbutanoate]
1000 to 5000 nM	CC1(C)[C@H]2C[C@@H]3CN(S(=O)(=O)c4ccc(C5CCCCC5)cc4)C[C@]3(COC(=O)Nc3ccc(I)cc3)[C@@H]1C2 [compound 45, ((3aS,4R,6R,7aS)-2-((4-cyclohexylphenyl)sulfonyl)-5,5-dimethyloctahydro-3aH-4,6-methanoisoindol-3a-yl)methyl (4-iodophenyl)carbamate]
1000 to 5000 nM	CN(C)CC(C)(C)c1ccc(S(=O)(=O)N2C[C@H]3C[C@H]4C[C@H](C4(C)C)[C@@]3(COC(=O)Nc3ccc(I)cc3)C2)cc1 [compound 61, ((3aS,4R,6R,7aS)-2-((4-(1-(dimethylamino)-2-methylpropan-2-yl)phenyl)sulfonyl)-5,5-dimethyloctahydro-3aH-4,6-methanoisoindol-3a-yl)methyl (4-iodophenyl)carbamate]
< 200 nM	COCCOCC(C)(C)c1ccc(S(=O)(=O)N2C[C@H]3C[C@H]4C[C@H](C4(C)C)[C@@]3(COC(=O)Nc3ccc(I)cc3)C2)cc1 [compound 58, ((3aS,4R,6R,7aS)-2-((4-(1-(2-methoxyethoxy)-2-methylpropan-2-yl)phenyl)sulfonyl)-5,5-dimethyloctahydro-3aH-4,6-methanoisoindol-3a-yl)methyl (4-iodophenyl)carbamate]
1000 to 5000 nM	CC(C)(C)c1ccc(S(=O)(=O)N2C[C@H]3C[C@H]4C[C@H](C4(C)C)[C@@]3(COC(=O)Nc3ccc(C#CCCO)cc3)C2)cc1 [compound 18, ((3aS,4R,6R,7aS)-2-((4-(tert-butyl)phenyl)sulfonyl)-5,5-dimethyloctahydro-3aH-4,6-methanoisoindol-3a-yl)methyl (4-(4-hydroxybut-1-yn-1-yl)phenyl)carbamate]
